Experimental data from ChEMBL document CHEMBL1133335, “Serendipitous synthesis of novel dehydro- and dechloro-pseudomycin B (PSB) derivatives” (Bioorg Med Chem Lett, 2000).
≈ marks a conversion by molar mass, not a printed value. Where a SMILES comes first, the peptide text is derived from it. Bridges are numbered along the chain shown (N, C = ends). [ ]: non-standard residue; d: D form. The star is where a group is joined. Tetradecanoyl(3R-OH) = CCCCCCCCCCC[C@@H](O)CC(=O)*; Asp(3S-OH) = N[C@H](C(=O)O)[C@H](O)C(=O)O; Thr(4-Cl) = N[C@H](C(=O)O)[C@H](O)CCl; aThr = C[C@H](O)[C@H](N)C(=O)O; dDab = NCC[C@@H](N)C(=O)O; Dab = NCC[C@H](N)C(=O)O; Dhb = C/C=C(\N)C(=O)O

Assays:
[1] = system: Aspergillus fumigatus; experiment: In vitro minimum inhibitory concentration against Aspergillus fumigatus; assay type: functional
[2] = system: Candida albicans; experiment: In vitro minimum inhibitory concentration against Candida albicans; assay type: functional
[3] = system: Mus musculus; experiment: Compound (at 20 mg/kg) was tested to induce tail vein irritation in mice; Positive; assay type: ADME, organism-based; parameters: dose 20 mg/kg; settings: in vivo
[4] = system: Cryptococcus neoformans; experiment: In vitro minimum inhibitory concentration against Cryptococcus neoformans; assay type: functional
[5] = system: Mus musculus; experiment: Compound (at 20 mg/kg) was tested to induce tail vein irritation in mice; Negative; assay type: ADME, organism-based; parameters: dose 20 mg/kg; settings: in vivo

Compound	MIC [1] [µg/mL]	MIC [2] [µg/mL]	Tail vein toxicity [3]	MIC [4] [µg/mL]	Tail vein toxicity [5]
C/C=C1\NC(=O)[C@H]([C@H](C)O)NC(=O)[C@H](CCN)NC(=O)[C@H](CCCCN)NC(=O)[C@H](CC(=O)O)NC(=O)[C@@H](CCN)NC(=O)[C@@H](NC(=O)C[C@H](O)CCCCCCCCCCC)COC(=O)[C@H]([C@H](O)CCl)NC(=O)[C@H]([C@H](O)C(=O)O)NC1=O [PSEUDOMYCIN B] ({Tetradecanoyl(3R-OH)}-S[dDab]DK[Dab][aThr][Dhb][Asp(3S-OH)][Thr(4-Cl)]; ester 1-C)	20 (≈ 16.6 µM)	0.312 (≈ 0.258 µM)	POSITIVE	< 0.01	–
C/C=C1\NC(=O)[C@H]([C@H](C)O)NC(=O)[C@H](CCN)NC(=O)[C@H](CCCCN)N2C(=O)C[C@H](NC(=O)[C@@H](CCN)NC(=O)[C@@H](NC(=O)C[C@H](O)CCCCCCCCCCC)COC(=O)/C(=C\CO)NC(=O)[C@H]([C@H](O)C(=O)O)NC1=O)C2=O	> 20	> 20	–	20 (≈ 17.3 µM)	–
C/C=C1\NC(=O)[C@H]([C@@H](C)O)NC(=O)[C@@H](CCN)NC(=O)[C@H](CCCCN)N2C(=O)C[C@@H](NC(=O)[C@H](CCN)NC(=O)C(NC(=O)C[C@@H](O)CCCCCCCCCCC)COC(=O)[C@@H]([C@@H](O)CCl)NC(=O)[C@H]([C@H](O)C(=O)O)NC1=O)C2=O (stereo not given in full)	> 20	> 20	–	10 (≈ 8.41 µM)	Negative
C/C=C1\NC(=O)[C@H]([C@H](C)O)NC(=O)[C@H](CCN)NC(=O)[C@H](CCCCN)NC(=O)[C@H]2CC(=O)O[C@H](C(=O)O)[C@H](NC1=O)C(=O)N[C@@H]([C@H](O)CCl)C(=O)OC[C@H](NC(=O)C[C@H](O)CCCCCCCCCCC)C(=O)N[C@H](CCN)C(=O)N2	> 20	5 (≈ 4.2 µM)	–	0.625 (≈ 0.525 µM)	Negative
